Test results: ChEMBL document CHEMBL5584232, “Hijacking monopolar spindle 1 (MPS1) for various cancer types by small molecular inhibitors: Deep insights from a decade of research and patents” (Eur J Med Chem, 2024)
Blank lines part the entries; values can stand above or below the molecule they belong to.

Experiments:
[1] = target: T1, Dual specificity protein kinase TTK (Homo sapiens, UniProt P33981); test: Inhibition of MPS1 (unknown origin)
T1 sequence (P33981 whole entry): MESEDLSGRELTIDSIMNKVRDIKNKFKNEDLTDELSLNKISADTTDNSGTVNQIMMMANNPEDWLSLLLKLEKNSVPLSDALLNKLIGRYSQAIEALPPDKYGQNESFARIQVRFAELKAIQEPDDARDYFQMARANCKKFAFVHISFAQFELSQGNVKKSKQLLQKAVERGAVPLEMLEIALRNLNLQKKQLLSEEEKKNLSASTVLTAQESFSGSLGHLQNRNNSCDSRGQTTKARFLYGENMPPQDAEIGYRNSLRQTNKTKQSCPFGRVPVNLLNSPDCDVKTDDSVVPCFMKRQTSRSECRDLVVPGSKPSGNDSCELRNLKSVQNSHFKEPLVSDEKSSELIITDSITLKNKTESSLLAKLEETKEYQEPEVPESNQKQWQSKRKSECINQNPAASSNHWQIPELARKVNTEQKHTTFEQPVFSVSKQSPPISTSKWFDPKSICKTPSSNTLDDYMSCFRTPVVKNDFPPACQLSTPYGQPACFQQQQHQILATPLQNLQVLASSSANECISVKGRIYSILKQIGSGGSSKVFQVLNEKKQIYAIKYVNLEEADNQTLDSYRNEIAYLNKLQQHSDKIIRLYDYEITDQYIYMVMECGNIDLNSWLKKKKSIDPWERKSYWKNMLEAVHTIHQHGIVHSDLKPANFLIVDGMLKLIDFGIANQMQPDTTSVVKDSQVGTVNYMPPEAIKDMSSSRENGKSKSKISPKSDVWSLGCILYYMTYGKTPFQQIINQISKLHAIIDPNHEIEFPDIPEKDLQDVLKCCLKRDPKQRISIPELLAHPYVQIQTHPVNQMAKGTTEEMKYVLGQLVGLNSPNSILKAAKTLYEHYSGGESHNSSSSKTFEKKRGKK

COLO 205 = test: Antiproliferative activity against human COLO 205 cells assessed as reduction in cell viability incubated for 48 hrs by MTT assay; assay type: functional, cell-based; conditions: COLO 205, 48 h
[2] = AUC in mouse; assay type: ADME, organism-based; conditions: in vivo
[3] = Half life in mouse; assay type: ADME, organism-based; conditions: in vivo
MOLT-4 = test: Antiproliferative activity against human MOLT-4 cells assessed as reduction in cell growth incubated for 72 hrs by MTT assay; assay type: functional, cell-based; conditions: MOLT-4, 72 h
Aurora kinase A = target: T2, Aurora kinase A (Homo sapiens, UniProt O14965); test: Inhibition of AURORA-A (unknown origin)
T2 sequence (O14965 whole entry): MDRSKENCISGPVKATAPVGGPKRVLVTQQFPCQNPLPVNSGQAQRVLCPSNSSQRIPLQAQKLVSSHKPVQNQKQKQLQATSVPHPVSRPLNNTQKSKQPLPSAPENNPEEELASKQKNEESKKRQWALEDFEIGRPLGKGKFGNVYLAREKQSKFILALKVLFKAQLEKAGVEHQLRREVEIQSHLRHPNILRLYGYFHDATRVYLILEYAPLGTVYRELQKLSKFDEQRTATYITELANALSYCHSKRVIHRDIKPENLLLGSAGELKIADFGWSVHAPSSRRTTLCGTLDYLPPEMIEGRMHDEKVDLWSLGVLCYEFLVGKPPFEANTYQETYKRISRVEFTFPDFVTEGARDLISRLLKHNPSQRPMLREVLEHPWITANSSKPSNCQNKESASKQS

[4] = Metabolic stability in mouse liver microsomes assessed as drug metabolism measured after 30 mins; assay type: ADME, Microsome; conditions: read-out: Drug metabolism
[5] = target: Cyclin-dependent kinase 2 (Homo sapiens, UniProt P24941); test: Inhibition of CDK2 (unknown origin)
IGROV-1 [6] = test: Growth inhibition of human IGROV-1 cells measured after 72 hrs by SRB method; assay type: functional
OVCAR-4 [7] = test: Growth inhibition of human OVCAR-4 cells measured after 72 hrs by SRB method; assay type: functional
IGROV-1 [8] = test: Anticancer activity against human IGROV-1 cells assessed as cell growth inhibition measured after 72 hrs by DAPI staining based analysis; assay type: functional
OVCAR-3 = test: Anticancer activity against human OVCAR-3 cells assessed as cell growth inhibition measured after 72 hrs by DAPI staining based analysis; assay type: functional
OVCAR-4 [9] = test: Anticancer activity against human OVCAR-4 cells assessed as cell growth inhibition measured after 72 hrs by DAPI staining based analysis; assay type: functional
OVCAR-5 = test: Anticancer activity against human OVCAR-5 cells assessed as cell growth inhibition measured after 72 hrs by DAPI staining based analysis; assay type: functional
OVCAR-8 = test: Anticancer activity against human OVCAR-8 cells assessed as cell growth inhibition measured after 72 hrs by DAPI staining based analysis; assay type: functional
NCI/ADR-RES = test: Anticancer activity against human NCI-ADR-RES cells assessed as cell growth inhibition measured after 72 hrs by DAPI staining based analysis; assay type: functional
SK-OV-3 = test: Anticancer activity against human SK-OV-3 cells assessed as cell growth inhibition measured after 72 hrs by DAPI staining based analysis; assay type: functional
CAL-51 = test: Antiproliferative activity against human CAL-51 cells assessed as reduction in cell viability incubated for 72 hrs by MTT assay; assay type: functional, cell-based; conditions: CAL-51, 72 h
[10] = Cmax in Sprague-Dawley rat at 3 mg/kg, po by LC-MS/MS analysis; assay type: ADME, organism-based; conditions: in vivo
[11] = AUC in Sprague-Dawley rat at 3 mg/kg, po by LC-MS/MS analysis; assay type: ADME, organism-based; conditions: in vivo
[12] = Cmax in ICR mouse at 3 mg/kg, po; assay type: ADME, organism-based; conditions: in vivo
[13] = AUC in ICR mouse at 3 mg/kg, po and measured after 24 hrs by LC-MS/MS analysis; assay type: ADME, organism-based; conditions: in vivo
[14] = Oral bioavailability in ICR mouse at 5 mg/kg by LC-MS/MS analysis; assay type: ADME, organism-based; conditions: in vivo
[15] = Clearance in Wistar rat at 1 mg/kg, iv measured after 24 hrs by LC-MS/MS analysis; assay type: ADME, organism-based; conditions: in vivo
[16] = Dose normalized AUC in Wistar rat at 1 mg/kg, po measured for 24 hrs by LC-MS/MS analysis; assay type: ADME, organism-based; conditions: in vivo
[17] = Clearance in Beagle dog at 0.5 mg/kg, iv measured for 24 hrs by LC-MS/MS analysis; assay type: ADME, organism-based, Canis lupus familiaris; conditions: in vivo
[18] = Dose normalized AUC in Beagle dog at 1 mg/kg, po measured for 24 hrs by LC-MS/MS analysis; assay type: ADME, organism-based, Canis lupus familiaris; conditions: in vivo
[19] = Intrinsic clearance in human liver microsomes; assay type: ADME, Microsome

IC50 [1]: 0.001 µM
Structure (SMILES): COc1cc(C(=O)N(C)C)ccc1Nc1nc(OC2CCCC2)c2cc[nH]c2n1

IC50 [1]: 0.0087 µM
Structure (SMILES): CN1CCC(c2ccc(Nc3ncc4c(n3)-n3ccc(C(N)=O)c3CC4)cc2)CC1

IC50 (COLO 205): 0.1 µM | AUC [2]: 2.23 µM·h | half-life [3]: 4.3 h
Structure (SMILES): CCC(=O)N[C@H]1CC[C@@H](n2c(=O)cc(C)c3cnc(Nc4ccc(N5CCN(C(=O)CCC#Cc6ccc7c(c6)CN(C6CCC(=O)NC6=O)C7=O)CC5)cc4OC)nc32)CC1 (some centres not stated)

IC50 (MOLT-4): 0.011 µM
Structure (SMILES): COc1cc(N2CCN(C)CC2)ccc1Nc1ncc2c(n1)-n1ccc(C(=O)Nc3c(C)cccc3F)c1CC2

IC50 (COLO 205): 0.2 µM | AUC [2]: 2.33 µM·h | half-life [3]: 3.2 h
Structure (SMILES): CCC(=O)N[C@H]1CC[C@@H](n2c(=O)cc(C)c3cnc(Nc4ccc(N5CCN(C(=O)CCCCC#Cc6ccc7c(c6)CN(C6CCC(=O)NC6=O)C7=O)CC5)cc4OC)nc32)CC1 (some centres not stated)

IC50 (Aurora kinase A): > 100 µM | metabolised at 0.5 h [4]: 23%
Structure (SMILES): COC1CCN(C(=O)c2ccc(Nc3cc4[nH]c(C(=O)N(C)C)cc4cn3)c(Cl)c2)CC1

IC50 [5]: > 100 µM | IC50 (Aurora kinase A): > 40 µM | metabolised at 0.5 h [4]: 28%
Structure (SMILES): CN(C)C(=O)c1cc2cnc(Nc3ccc(-c4cncn4C)cc3Cl)cc2n1C(=O)OC(C)(C)C

GI50 (OVCAR-4 [7]): 1.6 µM
Structure (SMILES): O=c1c2cc(Cl)ccc2sc2c(NCCCNCCO)nc3ccccc3c12
GI50 (IGROV-1 [6]): 1.6 µM | TGI (IGROV-1 [8]): 3.6 µM | TGI (OVCAR-3): 3.51 µM | TGI (OVCAR-4 [9]): 3.23 µM | TGI (OVCAR-5): 3.5 µM | TGI (OVCAR-8): 3.32 µM | TGI (NCI/ADR-RES): 3.63 µM | TGI (SK-OV-3): 3.38 µM

IC50 (Aurora kinase A): > 40 µM | metabolised at 0.5 h [4]: 25%
Structure (SMILES): CN(C)C(=O)c1cc2cnc(Nc3ccc(S(=O)(=O)N(C)C)cc3Cl)cc2[nH]1

IC50 (Aurora kinase A): 23 µM | metabolised at 0.5 h [4]: 48%
Structure (SMILES): CN(C)C(=O)c1ccc(Nc2cc3c(cn2)cc(C(=O)N(C)C)n3C(=O)OC(C)(C)C)c(Cl)c1

IC50 (Aurora kinase A): > 100 µM | metabolised at 0.5 h [4]: 20%
Structure (SMILES): CN(C)C(=O)c1cc2cnc(Nc3ccc(-c4cnn(C)c4)cc3Cl)cc2[nH]1

Structure (SMILES): C[C@H](Oc1cc(C(=O)N(C)C)ccc1Nc1nc(O[C@H]2CC[C@@](C)(O)CC2)c2c(Cl)c[nH]c2n1)C(F)(F)F
IC50 [1]: 0.0007 µM | IC50 (CAL-51): 0.01 µM | Cmax [10]: 4.35 µM | AUC [11]: 26.3 µM·h | Cmax [12]: 5.2 µM | AUC at 24 h [13]: 22.5 µM·h | bioavailability [14]: 60%

IC50 (MOLT-4): 0.011 µM
Structure (SMILES): COc1cc(N2CCN(C)CC2)ccc1Nc1ncc2c(n1)-n1ccc(C(=O)Nc3c(C)cccc3C)c1CC2

clearance [15]: 0.52 L/h/kg | AUC/dose [16]: 2.4 kg·h/L | clearance [17]: 0.44 L/h/kg | AUC/dose [18]: 2.5 kg·h/L
Structure (SMILES): COc1ccc(Oc2cc(NCCC(F)(F)F)c3ncc(-c4ccc(C(=O)NC5CC5)c(C)c4)n3n2)c(F)c1F [BAY-1217389]

CLH [19]: 8 µL/min/µg
Structure (SMILES): CCOc1cc(-c2nncn2C)ccc1Nc1ncc2cc(C)nc(NCC(C)(C)C)c2n1 [BOS-172722]
